The source of these data is US12479847B2 (DANA-FARBER CANCER INSTITUTE, INC., priority 2019, dated 2025).

Common to all, as to test: KINOMEscan (ScanMAX) kinase profiling
Holding throughout (format): binding

Assay [1] addresses T1, panel of 468 kinases (Homo sapiens, UniProt O15111).
T1 construct: purchased KINOMEscan (ScanMAX) service
T1 sequence (O15111 1-745): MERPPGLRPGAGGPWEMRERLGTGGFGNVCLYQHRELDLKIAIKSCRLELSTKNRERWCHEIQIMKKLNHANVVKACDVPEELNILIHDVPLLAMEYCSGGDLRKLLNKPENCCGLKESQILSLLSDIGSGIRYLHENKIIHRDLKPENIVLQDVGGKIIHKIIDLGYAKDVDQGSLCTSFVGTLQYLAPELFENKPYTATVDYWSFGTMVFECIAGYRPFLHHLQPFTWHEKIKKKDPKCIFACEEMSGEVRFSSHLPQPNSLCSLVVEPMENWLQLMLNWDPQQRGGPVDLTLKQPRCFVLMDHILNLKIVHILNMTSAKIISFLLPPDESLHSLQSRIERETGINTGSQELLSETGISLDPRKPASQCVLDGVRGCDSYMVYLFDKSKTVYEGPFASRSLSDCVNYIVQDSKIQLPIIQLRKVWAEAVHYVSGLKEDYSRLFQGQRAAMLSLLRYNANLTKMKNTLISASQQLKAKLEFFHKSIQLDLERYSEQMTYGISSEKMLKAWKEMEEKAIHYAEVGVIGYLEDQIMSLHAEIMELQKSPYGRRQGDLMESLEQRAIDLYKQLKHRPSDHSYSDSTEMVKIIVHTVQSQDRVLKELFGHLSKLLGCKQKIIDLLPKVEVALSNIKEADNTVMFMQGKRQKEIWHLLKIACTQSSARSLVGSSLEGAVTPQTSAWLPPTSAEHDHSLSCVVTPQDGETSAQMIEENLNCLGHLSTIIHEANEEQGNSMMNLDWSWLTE
As to conditions: IKK-alpha; 1 μM; read-out: % control.

Assay [2] concerns the target T2, panel of 468 kinases (Homo sapiens, UniProt P36896).
T2 construct: purchased KINOMEscan (ScanMAX) service
T2 sequence (P36896 24-505): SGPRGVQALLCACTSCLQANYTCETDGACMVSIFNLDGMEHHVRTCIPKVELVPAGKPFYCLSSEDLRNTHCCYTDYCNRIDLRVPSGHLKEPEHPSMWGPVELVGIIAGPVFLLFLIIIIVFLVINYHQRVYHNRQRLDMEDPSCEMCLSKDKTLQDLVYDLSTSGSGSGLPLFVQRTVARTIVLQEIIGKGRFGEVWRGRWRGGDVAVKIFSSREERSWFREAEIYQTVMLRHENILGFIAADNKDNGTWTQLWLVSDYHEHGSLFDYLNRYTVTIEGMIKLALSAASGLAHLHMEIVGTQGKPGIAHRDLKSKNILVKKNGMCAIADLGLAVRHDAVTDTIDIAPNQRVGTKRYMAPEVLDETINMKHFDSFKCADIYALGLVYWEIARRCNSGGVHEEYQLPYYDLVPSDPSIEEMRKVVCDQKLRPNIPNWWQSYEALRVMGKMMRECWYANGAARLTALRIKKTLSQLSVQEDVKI
As to conditions: ACVR1B; 1 μM; read-out: % control.

The target in assay [3] is T3, panel of 468 kinases (Homo sapiens, UniProt P36897).
T3 construct: purchased KINOMEscan (ScanMAX) service
T3 sequence (P36897 34-503): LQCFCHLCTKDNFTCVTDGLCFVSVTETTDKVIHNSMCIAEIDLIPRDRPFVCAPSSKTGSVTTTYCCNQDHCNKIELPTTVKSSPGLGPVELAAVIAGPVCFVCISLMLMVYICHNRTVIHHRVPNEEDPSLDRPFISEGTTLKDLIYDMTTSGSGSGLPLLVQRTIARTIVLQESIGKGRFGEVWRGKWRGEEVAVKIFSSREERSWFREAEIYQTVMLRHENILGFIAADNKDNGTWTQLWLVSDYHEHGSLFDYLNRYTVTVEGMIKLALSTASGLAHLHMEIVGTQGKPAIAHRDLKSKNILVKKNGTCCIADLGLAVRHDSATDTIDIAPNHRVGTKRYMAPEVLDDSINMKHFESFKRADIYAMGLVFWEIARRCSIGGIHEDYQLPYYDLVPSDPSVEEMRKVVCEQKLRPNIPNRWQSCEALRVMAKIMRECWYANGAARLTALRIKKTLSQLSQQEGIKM
The conditions noted are these: TGFBR1; 1 μM; read-out: % control.

For assay [4], the target named is T4, panel of 468 kinases (Homo sapiens, UniProt P49137).
T4 construct: purchased KINOMEscan (ScanMAX) service
T4 sequence (P49137 whole entry): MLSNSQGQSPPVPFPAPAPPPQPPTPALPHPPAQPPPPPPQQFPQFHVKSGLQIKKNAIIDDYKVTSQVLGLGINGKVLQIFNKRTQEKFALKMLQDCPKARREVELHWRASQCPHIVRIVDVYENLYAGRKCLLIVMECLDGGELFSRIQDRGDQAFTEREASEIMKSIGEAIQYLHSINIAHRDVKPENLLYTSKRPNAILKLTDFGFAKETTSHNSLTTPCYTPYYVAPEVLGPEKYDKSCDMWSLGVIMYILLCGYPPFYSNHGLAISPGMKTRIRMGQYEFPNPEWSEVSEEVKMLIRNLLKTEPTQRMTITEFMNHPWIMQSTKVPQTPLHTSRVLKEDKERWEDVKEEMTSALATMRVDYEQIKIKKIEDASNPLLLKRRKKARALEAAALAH
As to conditions: MAPKAPK2; 1 μM; read-out: % control.

Take `CNc1nc(Nc2ccc(S(=O)(=O)N3CCC(N4CCOCC4)CC3)cc2OC)nc2[nH]cc(Cl)c12` [Compound 12, 5-chloro-N2-(2-methoxy-4-((4-morpholinopiperidin-1-yl)sulfonyl)phenyl)-N4-methyl-7H-pyrrolo[2,3-d]pyrimidine-2,4-diamine]: the remaining binding at 1 µM in assay [1] is 76%; in assay [2] it was 100%; in assay [3] it was 86%; in assay [4] it was 72%.

Turning to `CNc1nc(Nc2ccc(P3(=O)CCN(C4CCOCC4)CC3)cc2OC)nc2[nH]cc(Cl)c12` [Compound 77, 4-(4-((5-chloro-4-(methylamino)-7H-pyrrolo[2,3-d]pyrimidin-2-yl)amino)-3-methoxyphenyl)-1-(tetrahydro-2H-pyran-4-yl)-1,4-azaphosphinane 4-oxide], the remaining binding at 1 µM is 81% in assay [1], 100% in assay [2], 72% in assay [3] and 100% in assay [4].

For the compound `CNc1nc(Nc2ccc(C(=O)N3CCC(N4CCOCC4)CC3)c3c2OCO3)nc2[nH]cc(Cl)c12` [Compound 75, (7-((5-chloro-4-(methylamino)-7H-pyrrolo[2,3-d]pyrimidin-2-yl)amino)benzo[d][1,3]dioxol-4-yl)(4-morpholinopiperidin-1-yl)methanone], the remaining binding at 1 µM is 65% in assay [1], 100% in assay [2], 68% in assay [3] and 31% in assay [4].
